One series deals with T1, IRR (Homo sapiens, UniProt P14616).
T1 construct: purchased MRC in Dundee (Premier Screen service)
Kind of series: Premier Screen kinase activity screening (33P ATP filter binding). The class given is biochemical. The note with it: 10 μM SCO-101, mean of assay duplicates, read-out: Kinase activity (percentage of DMSO control). The gist of the method: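 Kinase activity was measured by radioactive filter binding with 33P-ATP, testing the compound at a single concentration of 10 μM. Values are the mean percentage activity of duplicate assays, with standard deviation, relative to DMSO controls.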

Series [1] is described as follows: Cell viability (MTT assay). The class given is cell-based. The note with it: human, HT29 SN38 resistant colon cancer cells, HT29 SN38 resistant, SCO-101 20 μM alone, read-out: cell viability, % of untreated control cells. Here is the method:
(§1) SN38 was applied to a SN38 sensitive colon cancer cell line (“HT29 parental”) and to a SN38 resistant colon cancer cell line (“HT29 SN38 resistant”).
(§2) The Log Concentration (μM) used are—1 for SN38. Data represents cell viability data (MTT assay) and cells were incubated with drugs for 72 hours.
(§3) The Log Concentrations (μM) used are—1 for SN38, and 1.5 for both Srpkin340 and Sphinx 31. Data represents cell viability data (MTT assay) and cells were incubated with drugs for 72 hours.

For series [2], the system named is HT29 SN38 resistant colon cancer cells. Kind of series: Cell viability (MTT assay). It is filed as cell-based. The note with it: 72 hours. Here is the method:
as §1, §2, §3

The structures appear in SMILES notation.

T1 sequence (P14616 27-1297, species assumed): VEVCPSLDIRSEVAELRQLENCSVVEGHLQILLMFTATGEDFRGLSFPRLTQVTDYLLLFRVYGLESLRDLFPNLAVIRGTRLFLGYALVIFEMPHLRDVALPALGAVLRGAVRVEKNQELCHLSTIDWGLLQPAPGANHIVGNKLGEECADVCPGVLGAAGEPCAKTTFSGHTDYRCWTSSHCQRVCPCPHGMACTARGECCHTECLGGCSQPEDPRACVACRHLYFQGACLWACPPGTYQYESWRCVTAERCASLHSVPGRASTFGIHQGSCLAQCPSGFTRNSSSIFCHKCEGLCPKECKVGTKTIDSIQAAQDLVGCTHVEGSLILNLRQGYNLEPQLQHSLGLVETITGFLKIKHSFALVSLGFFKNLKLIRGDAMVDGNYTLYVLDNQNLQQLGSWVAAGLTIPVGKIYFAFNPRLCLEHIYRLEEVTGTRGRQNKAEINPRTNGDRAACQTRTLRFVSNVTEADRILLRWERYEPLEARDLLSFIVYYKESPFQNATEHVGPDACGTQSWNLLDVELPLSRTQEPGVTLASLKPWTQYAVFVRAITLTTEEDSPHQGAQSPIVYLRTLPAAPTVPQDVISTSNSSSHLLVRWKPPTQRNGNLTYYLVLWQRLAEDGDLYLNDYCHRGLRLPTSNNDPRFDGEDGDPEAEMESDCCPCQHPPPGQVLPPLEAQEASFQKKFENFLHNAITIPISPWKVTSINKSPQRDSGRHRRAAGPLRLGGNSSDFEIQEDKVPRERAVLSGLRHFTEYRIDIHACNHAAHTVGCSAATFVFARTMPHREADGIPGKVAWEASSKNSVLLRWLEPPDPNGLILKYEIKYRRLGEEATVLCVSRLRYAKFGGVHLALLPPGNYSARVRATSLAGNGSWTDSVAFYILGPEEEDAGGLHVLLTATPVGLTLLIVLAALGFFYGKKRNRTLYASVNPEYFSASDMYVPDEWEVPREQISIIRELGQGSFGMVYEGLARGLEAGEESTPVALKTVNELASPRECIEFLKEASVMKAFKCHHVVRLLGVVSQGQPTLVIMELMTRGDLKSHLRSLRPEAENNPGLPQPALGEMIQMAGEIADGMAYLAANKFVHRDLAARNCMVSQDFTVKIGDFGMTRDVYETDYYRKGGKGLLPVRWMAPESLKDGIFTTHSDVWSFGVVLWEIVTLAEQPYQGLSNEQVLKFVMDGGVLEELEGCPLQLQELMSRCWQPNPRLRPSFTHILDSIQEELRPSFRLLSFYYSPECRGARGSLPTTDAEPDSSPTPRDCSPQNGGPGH

Regarding `O=C(Nc1cc(C(F)(F)F)cc(C(F)(F)F)c1)Nc1ccc(Br)cc1-c1nnn[nH]1` [SCO-101], the remaining activity at 10 µM on IRR worked out at 131%. For the same molecule, in series [1], the viability at 72 h, 20 μM worked out at 96%. In addition, the viability at 20 µM in series [2] (Homo sapiens, HT-29, HT29 SN38 resistant, combination of SN38 0.1 μM and SCO-101 20 μM, read-out: cell viability, % of untreated control cells) was found to be 22%. In series [2] (SCO-101 20 μM with SN38 0.1 μM), the “re-sensitization of SN38 resistant HT29 cells to SN38” value was “re-sensitization”.

The values above are taken from US20210251963A1, “UREA DERIVATIVES FOR USE IN THE TREATMENT OF SUBJECTS WITH ELEVATED EXPRESSION AND/OR ACTIVITY OF SRPK1” (Scandion Oncology A/S, priority 2018, published 2021).
